What was measured:
[1] = target: T1, Prostaglandin G/H synthase 1 (Rattus norvegicus, UniProt Q63921); format: functional
T1 sequence (Q63921 whole entry): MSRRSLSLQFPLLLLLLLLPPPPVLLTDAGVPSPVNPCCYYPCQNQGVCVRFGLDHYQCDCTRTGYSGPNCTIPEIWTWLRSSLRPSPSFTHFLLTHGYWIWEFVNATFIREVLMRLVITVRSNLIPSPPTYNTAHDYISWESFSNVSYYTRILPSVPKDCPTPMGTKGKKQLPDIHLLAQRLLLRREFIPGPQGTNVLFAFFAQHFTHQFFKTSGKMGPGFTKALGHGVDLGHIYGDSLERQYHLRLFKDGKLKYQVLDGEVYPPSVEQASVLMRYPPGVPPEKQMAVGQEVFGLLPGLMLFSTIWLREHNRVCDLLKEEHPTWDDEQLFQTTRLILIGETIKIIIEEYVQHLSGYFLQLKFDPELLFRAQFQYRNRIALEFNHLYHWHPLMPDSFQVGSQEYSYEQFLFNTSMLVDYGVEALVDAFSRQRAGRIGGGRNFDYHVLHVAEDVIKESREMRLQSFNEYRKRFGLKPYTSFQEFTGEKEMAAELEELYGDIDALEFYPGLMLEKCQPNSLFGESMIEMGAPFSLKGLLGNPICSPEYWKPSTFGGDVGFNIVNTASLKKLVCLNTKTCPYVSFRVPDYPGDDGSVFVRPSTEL

[2] = target: T2, 5-hydroxytryptamine receptor 3A (Homo sapiens, UniProt P46098); format: functional
T2 sequence (P46098 whole entry): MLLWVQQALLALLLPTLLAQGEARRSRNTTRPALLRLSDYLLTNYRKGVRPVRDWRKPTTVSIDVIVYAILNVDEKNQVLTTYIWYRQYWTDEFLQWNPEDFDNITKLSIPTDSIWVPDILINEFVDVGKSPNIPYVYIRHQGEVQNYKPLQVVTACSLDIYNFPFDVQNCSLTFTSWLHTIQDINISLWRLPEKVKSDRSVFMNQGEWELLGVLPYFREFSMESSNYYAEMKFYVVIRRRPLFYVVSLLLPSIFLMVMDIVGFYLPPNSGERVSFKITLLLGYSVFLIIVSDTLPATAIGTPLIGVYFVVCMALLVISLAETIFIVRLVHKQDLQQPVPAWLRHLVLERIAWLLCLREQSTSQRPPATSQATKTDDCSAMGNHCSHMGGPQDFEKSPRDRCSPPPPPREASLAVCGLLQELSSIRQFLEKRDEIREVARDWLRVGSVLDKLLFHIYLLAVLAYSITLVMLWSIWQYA

[3] = target: Gamma-aminobutyric acid receptor subunit alpha-1 (Rattus norvegicus, UniProt P62813); format: functional
Sequence of Gamma-aminobutyric acid receptor subunit alpha-1 (P62813 whole entry): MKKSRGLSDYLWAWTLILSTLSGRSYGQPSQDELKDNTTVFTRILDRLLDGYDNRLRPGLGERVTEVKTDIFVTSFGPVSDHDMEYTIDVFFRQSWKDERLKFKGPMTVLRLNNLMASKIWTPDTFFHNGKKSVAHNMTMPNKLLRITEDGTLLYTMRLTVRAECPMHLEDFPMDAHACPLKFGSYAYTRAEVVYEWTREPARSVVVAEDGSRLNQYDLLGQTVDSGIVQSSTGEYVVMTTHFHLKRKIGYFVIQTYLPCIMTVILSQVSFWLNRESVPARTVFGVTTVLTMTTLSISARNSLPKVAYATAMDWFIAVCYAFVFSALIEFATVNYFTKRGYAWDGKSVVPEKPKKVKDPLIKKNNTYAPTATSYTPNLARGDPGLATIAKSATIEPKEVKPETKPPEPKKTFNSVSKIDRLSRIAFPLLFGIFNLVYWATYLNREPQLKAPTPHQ

[4] = target: T3, Equilibrative nucleoside transporter 1 (Homo sapiens, UniProt Q99808)
T3 sequence (Q99808 whole entry): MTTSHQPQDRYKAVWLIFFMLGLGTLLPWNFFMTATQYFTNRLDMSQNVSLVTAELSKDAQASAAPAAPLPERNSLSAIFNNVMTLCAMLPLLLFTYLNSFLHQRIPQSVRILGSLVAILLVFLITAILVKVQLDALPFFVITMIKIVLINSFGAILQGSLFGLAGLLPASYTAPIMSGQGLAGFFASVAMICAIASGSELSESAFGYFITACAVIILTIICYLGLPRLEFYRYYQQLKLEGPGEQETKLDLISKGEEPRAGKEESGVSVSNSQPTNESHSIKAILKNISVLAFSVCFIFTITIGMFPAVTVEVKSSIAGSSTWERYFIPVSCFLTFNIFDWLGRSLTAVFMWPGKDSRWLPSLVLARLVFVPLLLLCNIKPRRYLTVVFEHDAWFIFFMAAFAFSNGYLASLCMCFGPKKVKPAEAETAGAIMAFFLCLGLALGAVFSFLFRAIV

Motilin receptor = Motilin receptor (Homo sapiens, UniProt O43193)
Sequence of Motilin receptor (O43193 whole entry): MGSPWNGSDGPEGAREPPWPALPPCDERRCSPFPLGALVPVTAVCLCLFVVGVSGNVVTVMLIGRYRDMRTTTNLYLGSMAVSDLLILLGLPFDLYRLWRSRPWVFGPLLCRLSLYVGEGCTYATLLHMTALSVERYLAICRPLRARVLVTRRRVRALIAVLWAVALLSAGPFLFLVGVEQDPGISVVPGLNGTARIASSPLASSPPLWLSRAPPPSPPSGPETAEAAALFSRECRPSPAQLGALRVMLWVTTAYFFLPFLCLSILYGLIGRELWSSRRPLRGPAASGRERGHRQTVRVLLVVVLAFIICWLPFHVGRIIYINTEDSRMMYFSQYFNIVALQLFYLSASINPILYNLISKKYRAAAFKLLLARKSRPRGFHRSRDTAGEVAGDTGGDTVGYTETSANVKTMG

[5] = target: 5-hydroxytryptamine receptor 2B (Homo sapiens, UniProt P41595); format: functional, cell-based
Sequence of 5-hydroxytryptamine receptor 2B (P41595 whole entry): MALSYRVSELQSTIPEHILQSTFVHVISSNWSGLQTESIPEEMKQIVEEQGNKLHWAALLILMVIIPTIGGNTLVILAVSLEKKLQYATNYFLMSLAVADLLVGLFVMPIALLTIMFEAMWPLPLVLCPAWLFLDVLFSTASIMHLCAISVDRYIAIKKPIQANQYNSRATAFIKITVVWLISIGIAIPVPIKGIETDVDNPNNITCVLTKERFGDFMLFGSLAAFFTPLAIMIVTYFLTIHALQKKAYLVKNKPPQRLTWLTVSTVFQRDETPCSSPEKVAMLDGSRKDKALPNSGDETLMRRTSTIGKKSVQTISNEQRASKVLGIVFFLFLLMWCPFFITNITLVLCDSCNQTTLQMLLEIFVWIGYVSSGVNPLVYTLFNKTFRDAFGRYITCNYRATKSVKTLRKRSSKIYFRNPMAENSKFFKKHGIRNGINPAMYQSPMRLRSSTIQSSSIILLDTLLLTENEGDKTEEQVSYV

Bile salt export pump = Bile salt export pump (Homo sapiens, UniProt O95342); format: functional
Sequence of Bile salt export pump (O95342 whole entry): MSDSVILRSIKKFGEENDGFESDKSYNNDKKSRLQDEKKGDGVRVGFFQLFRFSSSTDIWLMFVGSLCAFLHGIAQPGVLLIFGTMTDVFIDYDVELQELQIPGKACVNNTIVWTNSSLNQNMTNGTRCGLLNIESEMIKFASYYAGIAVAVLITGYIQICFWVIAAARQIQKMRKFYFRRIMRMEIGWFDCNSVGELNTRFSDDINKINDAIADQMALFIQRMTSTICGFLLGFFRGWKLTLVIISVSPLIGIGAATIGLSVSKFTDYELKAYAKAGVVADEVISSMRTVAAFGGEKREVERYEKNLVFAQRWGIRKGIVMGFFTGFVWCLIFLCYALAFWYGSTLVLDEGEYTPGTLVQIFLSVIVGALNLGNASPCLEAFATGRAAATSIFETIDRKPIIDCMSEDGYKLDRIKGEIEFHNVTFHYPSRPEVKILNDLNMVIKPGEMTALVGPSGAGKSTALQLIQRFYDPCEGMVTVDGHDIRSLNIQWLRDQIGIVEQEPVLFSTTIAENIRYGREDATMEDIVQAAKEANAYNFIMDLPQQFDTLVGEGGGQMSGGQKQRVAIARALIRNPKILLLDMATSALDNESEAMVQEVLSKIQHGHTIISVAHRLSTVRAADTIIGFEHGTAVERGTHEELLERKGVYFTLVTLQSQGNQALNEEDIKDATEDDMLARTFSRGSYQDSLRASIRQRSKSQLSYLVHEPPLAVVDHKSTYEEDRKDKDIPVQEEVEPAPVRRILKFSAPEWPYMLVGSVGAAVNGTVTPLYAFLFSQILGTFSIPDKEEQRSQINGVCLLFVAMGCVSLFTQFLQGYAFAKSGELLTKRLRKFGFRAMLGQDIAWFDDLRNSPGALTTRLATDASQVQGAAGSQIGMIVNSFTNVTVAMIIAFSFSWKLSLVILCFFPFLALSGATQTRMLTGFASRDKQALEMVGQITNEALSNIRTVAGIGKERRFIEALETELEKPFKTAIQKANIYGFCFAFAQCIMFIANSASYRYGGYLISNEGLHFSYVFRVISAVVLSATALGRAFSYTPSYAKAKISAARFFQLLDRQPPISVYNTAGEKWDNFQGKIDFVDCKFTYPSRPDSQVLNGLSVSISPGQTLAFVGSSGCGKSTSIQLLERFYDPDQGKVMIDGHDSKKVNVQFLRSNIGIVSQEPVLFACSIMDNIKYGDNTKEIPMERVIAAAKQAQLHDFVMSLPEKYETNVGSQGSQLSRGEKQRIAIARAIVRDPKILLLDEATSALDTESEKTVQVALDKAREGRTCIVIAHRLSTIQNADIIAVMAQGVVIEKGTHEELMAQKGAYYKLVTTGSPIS

[6] = target: T4, Type-1 angiotensin II receptor (Homo sapiens, UniProt P30556)
T4 sequence (P30556 whole entry): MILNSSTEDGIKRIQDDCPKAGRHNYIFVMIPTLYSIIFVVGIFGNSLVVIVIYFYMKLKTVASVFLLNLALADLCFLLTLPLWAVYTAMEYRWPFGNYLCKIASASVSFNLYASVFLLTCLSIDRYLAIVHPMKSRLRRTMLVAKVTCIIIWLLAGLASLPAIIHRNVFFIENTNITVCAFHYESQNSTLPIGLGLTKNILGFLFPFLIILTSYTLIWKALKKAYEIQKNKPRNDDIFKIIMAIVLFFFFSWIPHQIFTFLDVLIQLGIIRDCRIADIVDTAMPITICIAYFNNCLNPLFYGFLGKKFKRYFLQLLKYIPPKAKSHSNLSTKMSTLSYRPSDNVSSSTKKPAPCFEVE

D(1A) dopamine receptor = D(1A) dopamine receptor (Homo sapiens, UniProt P21728); format: functional, cell-based
Sequence of D(1A) dopamine receptor (P21728 whole entry): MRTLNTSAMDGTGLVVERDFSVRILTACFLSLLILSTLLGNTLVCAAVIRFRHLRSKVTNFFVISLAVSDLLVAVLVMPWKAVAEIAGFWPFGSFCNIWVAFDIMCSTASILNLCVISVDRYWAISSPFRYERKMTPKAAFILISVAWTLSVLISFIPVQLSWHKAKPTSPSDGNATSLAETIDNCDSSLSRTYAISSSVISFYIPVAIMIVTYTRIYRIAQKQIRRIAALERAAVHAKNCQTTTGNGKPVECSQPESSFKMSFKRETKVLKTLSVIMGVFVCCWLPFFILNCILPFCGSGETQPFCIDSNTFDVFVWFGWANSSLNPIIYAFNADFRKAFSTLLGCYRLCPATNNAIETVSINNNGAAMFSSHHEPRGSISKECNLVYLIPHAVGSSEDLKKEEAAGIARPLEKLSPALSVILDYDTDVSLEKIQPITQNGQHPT

D(3) dopamine receptor = D(3) dopamine receptor (Homo sapiens, UniProt P35462)
[7] = target: Growth hormone secretagogue receptor type 1 (Homo sapiens, UniProt Q92847)
Sequence of Growth hormone secretagogue receptor type 1 (Q92847 whole entry): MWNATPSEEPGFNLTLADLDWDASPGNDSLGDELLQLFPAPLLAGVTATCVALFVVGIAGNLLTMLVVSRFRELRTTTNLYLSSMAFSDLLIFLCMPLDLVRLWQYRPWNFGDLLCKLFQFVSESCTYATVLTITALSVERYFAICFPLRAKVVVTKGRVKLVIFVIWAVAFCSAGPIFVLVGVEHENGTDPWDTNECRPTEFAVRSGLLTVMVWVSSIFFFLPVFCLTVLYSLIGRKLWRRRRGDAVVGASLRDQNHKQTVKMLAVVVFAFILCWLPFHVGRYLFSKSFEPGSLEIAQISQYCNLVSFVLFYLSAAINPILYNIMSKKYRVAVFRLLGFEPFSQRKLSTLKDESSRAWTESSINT

Adenosine receptor A3 = target: T5, Adenosine receptor A3 (Homo sapiens, UniProt P0DMS8)
T5 sequence (P0DMS8 whole entry): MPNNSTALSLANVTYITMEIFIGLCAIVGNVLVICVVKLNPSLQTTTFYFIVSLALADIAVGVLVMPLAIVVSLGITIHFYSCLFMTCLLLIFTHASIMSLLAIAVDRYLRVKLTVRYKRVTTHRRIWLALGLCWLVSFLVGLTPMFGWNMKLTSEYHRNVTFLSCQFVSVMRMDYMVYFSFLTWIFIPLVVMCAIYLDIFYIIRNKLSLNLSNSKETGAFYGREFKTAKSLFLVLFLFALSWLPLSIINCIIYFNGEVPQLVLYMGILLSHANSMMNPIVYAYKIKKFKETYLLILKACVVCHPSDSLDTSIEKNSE

[8] = target: Delta-type opioid receptor (Homo sapiens, UniProt P41143)
Sequence of Delta-type opioid receptor (P41143 whole entry): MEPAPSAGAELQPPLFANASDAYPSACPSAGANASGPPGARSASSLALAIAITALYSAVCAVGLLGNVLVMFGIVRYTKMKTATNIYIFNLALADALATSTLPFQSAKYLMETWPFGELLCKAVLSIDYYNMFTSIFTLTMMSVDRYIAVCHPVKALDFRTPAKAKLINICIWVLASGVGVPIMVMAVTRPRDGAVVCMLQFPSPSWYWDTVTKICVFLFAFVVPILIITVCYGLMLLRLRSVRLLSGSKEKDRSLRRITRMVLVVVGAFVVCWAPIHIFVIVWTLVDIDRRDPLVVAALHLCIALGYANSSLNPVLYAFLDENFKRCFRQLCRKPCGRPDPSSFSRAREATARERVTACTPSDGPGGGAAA

[9] = target: cGMP-inhibited 3',5'-cyclic phosphodiesterase 3A (Homo sapiens, UniProt Q14432); format: functional
Sequence of cGMP-inhibited 3',5'-cyclic phosphodiesterase 3A (Q14432 whole entry): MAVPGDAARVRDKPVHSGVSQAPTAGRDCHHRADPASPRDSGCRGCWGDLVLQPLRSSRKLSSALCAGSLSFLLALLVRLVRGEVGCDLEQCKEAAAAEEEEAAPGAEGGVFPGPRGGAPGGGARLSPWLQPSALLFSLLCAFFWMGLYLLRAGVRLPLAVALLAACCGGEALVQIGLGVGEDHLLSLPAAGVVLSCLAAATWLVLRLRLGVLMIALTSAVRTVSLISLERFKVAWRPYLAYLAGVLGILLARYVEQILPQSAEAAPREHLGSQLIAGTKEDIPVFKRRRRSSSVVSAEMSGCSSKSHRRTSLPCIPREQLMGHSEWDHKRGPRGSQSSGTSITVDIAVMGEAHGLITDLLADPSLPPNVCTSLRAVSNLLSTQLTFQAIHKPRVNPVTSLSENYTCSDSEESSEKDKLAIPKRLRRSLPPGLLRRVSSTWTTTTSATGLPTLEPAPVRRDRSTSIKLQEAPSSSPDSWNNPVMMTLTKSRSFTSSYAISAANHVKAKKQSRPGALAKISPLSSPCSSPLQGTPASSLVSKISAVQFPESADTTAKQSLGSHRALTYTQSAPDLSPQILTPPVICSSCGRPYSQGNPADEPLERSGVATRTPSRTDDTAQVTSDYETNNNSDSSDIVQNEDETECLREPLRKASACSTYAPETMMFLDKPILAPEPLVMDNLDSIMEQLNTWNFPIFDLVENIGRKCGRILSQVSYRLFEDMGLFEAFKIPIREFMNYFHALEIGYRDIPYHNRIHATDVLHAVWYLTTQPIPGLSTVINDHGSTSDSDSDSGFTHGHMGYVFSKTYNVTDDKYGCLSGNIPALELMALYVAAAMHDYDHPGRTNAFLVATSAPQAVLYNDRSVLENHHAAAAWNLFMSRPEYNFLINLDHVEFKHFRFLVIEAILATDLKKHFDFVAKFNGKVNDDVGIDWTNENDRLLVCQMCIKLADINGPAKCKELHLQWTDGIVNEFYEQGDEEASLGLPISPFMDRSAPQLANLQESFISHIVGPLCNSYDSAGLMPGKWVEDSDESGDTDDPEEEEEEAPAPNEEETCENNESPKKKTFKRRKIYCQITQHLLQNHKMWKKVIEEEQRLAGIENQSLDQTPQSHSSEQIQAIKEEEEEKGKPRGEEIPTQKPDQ
Also: assay procedure not described here.

Structure (SMILES)	AC50 [1] [µM]	AC50 [2] [µM]	AC50 [3] [µM]	AC50 [4] [µM]	AC50 (Motilin receptor) [µM]	AC50 [5] [µM]	AC50 (Bile salt export pump) [µM]	AC50 [6] [µM]	AC50 (D(1A) dopamine receptor) [µM]	AC50 (D(3) dopamine receptor) [µM]	AC50 [7] [µM]	AC50 (Adenosine receptor A3) [µM]	AC50 [8] [µM]	AC50 [9] [µM]
Nc1c2c(nc3ccccc13)CCCC2O (stereo not drawn) [VELNACRINE]	> 30	> 30	> 30	> 30	> 30	> 30	> 300	> 30	> 30	> 30	> 30	> 30	> 30	> 30
C[C@H](CCC(=O)O)[C@H]1CC[C@H]2[C@@H]3[C@H](O)C[C@@H]4C[C@H](O)CC[C@]4(C)[C@H]3CC[C@]12C [CHENODIOL]	> 30	> 30	> 30	> 30	> 30	> 30	13	> 30	> 30	> 30	> 30	> 30	> 30	> 30
Nc1nnc(-c2cccc(Cl)c2Cl)c(N)n1 [LAMOTRIGINE]	> 30	> 30	> 10	> 30	> 10	> 10	> 300	> 30	> 30	> 10	> 30	> 30	> 30	2.1
COc1cc2c(cc1OC)C1CC(=O)C(CC(C)C)CN1CC2 (stereo not drawn) [TETRABENAZINE]	> 30	> 30	> 30	> 30	> 30	> 30	74	> 30	> 30	> 30	> 30	> 30	> 30	> 30
NCC1(CC(=O)O)CCCCC1 [GABAPENTIN]	> 30	> 30	> 30	> 30	> 30	> 30	> 300	> 30	> 30	> 30	> 30	> 30	> 30	> 30
CNC1(C)C2CCC(C2)C1(C)C (stereo not drawn) [MECAMYLAMINE]	> 10	> 30	> 10	> 10	> 10	> 10	> 300	> 10	> 10	> 30	> 10	> 10	> 30	> 30
CC(=O)SCC(Cc1ccccc1)C(=O)NCC(=O)OCc1ccccc1 (stereo not drawn) [RACECADOTRIL]	> 30	> 30	> 30	> 30	> 30	> 30	21	> 30	> 30	> 30	> 30	> 30	> 30	> 30
O=C(c1ccccc1)c1ccc2n1CCC2C(=O)O (stereo not drawn) [KETOROLAC]	0.0239	> 30	> 30	> 10	> 10	> 30	> 300	> 10	> 30	> 30	> 10	> 10	> 30	> 30
CCOc1ccccc1OCCN[C@H](C)Cc1ccc(OC)c(S(N)(=O)=O)c1 [TAMSULOSIN]	> 30	> 30	> 10	> 30	> 10	> 10	> 300	> 30	> 10	0.0032	> 30	> 30	> 30	> 30
CO[C@@H]1[C@@H](OC(N)=O)[C@@H](O)[C@H](Oc2ccc3c(O)c(NC(=O)c4ccc(O)c(CC=C(C)C)c4)c(=O)oc3c2C)OC1(C)C [NOVOBIOCIN]	> 30	> 30	> 30	> 30	> 30	> 30	220	> 30	> 30	> 30	> 30	> 30	> 30	> 30
OCCOCCN1CCN(C(c2ccccc2)c2ccc(Cl)cc2)CC1 (stereo not drawn) [HYDROXYZINE]	> 30	> 30	> 10	> 30	> 10	> 10	270	> 30	> 10	0.29	> 30	> 30	> 30	> 30
COC(=O)CCc1ccc(OCC(O)CNC(C)C)cc1 (stereo not drawn) [ESMOLOL]	> 30	> 30	> 30	> 30	> 30	> 30	> 300	> 30	> 30	> 30	> 30	> 30	> 30	> 30
